Results published in the OPERA property sets (Mansouri et al. 2018).

Row | SMILES | boiling point | melting point | log10 vapour pressure (mmHg) | log10 Henry constant (atm·m³/mol) | log10 biodegradation half-life (days) | log10 Koc (L/kg) | ready biodegradability | log10 Koa
1 | COc1ccccc1F | 154 °C | -39 °C |  |  |  |  |  | 
2 | CC(C)(C)CC(C)(C)C | 122 °C | -66.5 °C | 1.3 |  |  |  |  | 
3 | c1ccc(-c2ccncn2)cc1 |  | 56 °C |  |  |  |  |  | 
4 | NS(=O)(=O)c1ccc(SCCO)c(F)c1 |  | 110 °C |  |  |  |  |  | 
5 | C=CCC(O)C=C (stereo not given) | 134 °C |  |  |  |  |  |  | 
6 | CCCCOC(=O)CCCC | 186 °C | -92.8 °C |  |  |  |  |  | 
7 | O=C(Nc1ccc2ncccc2c1)Nc1ccc2ncccc2c1 |  | 262 °C |  |  |  |  |  | 
8 | Oc1ccc(S)cc1 |  | 29.5 °C |  |  |  |  |  | 
9 | O=C1CCCCCCCCCC1 |  |  | -1.31 |  |  |  |  | 
10 | CCc1ccccn1 | 149 °C | -63.1 °C | 0.689 | -4.78 |  |  |  | 
11 | CCCCN1CCCCC1 | 176 °C |  |  |  |  |  |  | 
12 | CCCc1ccccc1C | 185 °C | -60.3 °C | -0.0027 |  | 0.477 |  |  | 
13 | CC[C@H]1CN2CCc3cc(OC)c(OC)cc3[C@@H]2C[C@@H]1C[C@@H]1NCCc2cc(O)c(OC)cc21 |  | 116 °C |  |  |  |  |  | 
14 | Cc1cc2c(cc1C)CCCC2 | 252 °C | 10 °C |  |  |  |  |  | 
15 | Cl[SiH2]c1ccccc1 | 162 °C |  |  |  |  |  |  | 
16 | COC(=O)c1ccccc1N | 256 °C | 24.5 °C | -1.57 |  |  |  |  | 
17 | Cn1c(=O)n(C)c(=O)n(C)c1=O | 274 °C | 176 °C |  |  |  |  |  | 
18 | CN(C)CCN(Cc1cccs1)c1ccccn1 |  |  |  |  |  | 2.87 |  | 
19 | CN1C(=O)OC(C)(C)C1=O |  | 46 °C |  |  |  |  |  | 
20 | NCCCCCC(=O)O |  | 205 °C |  |  |  |  |  | 
21 | C(=Cc1ccncc1)c1ccccc1 |  |  |  |  |  |  | readily biodegradable | 

Row | SMILES | boiling point | melting point | log10 vapour pressure (mmHg) | log10 Henry constant (atm·m³/mol) | log10 biodegradation half-life (days) | log10 Koc (L/kg) | ready biodegradability | log10 Koa
22 | COC(C)(OC)OC | 108 °C |  |  |  |  |  |  | 
23 | COc1cc(C=O)ccc1O | 285 °C | 81.5 °C | -3.93 |  |  |  | readily biodegradable | 
24 | CC(=O)c1ccc(-n2ccnc2)cc1 |  |  |  |  |  |  | readily biodegradable | 
25 | CC(=O)N(C)c1ccccc1C | 260 °C | 55.5 °C |  |  |  |  |  | 
26 | CCCCCCCCCCCCc1ccccc1O |  |  |  |  |  |  | not readily biodegradable | 
27 | CCOC(=O)C(CCC(C)C)C(=O)OCC | 241 °C |  |  |  |  |  |  | 
28 | Nc1nccnn1 |  | 176 °C |  |  |  |  |  | 
29 | COc1cc(O)c2c(=O)c3cc(O)ccc3oc2c1 |  | 266 °C |  |  |  |  |  | 
30 | CCCC=CCO | 157 °C |  |  |  |  |  |  | 
31 | C/C(=N\O)C(=O)c1ccccc1 |  | 114 °C |  |  |  |  |  | 
32 | CC(=O)CC(=O)O |  | 36.5 °C |  |  |  |  |  | 
33 | CN(C)CC(O)CN(C)C | 182 °C |  |  |  |  |  |  | 
34 | CCO[Si](C)(C)OCC | 114 °C | -87 °C | 1.3 |  |  |  |  | 
35 | O=C1CCN(c2ccccc2)N1 |  | 126 °C |  |  |  |  |  | 
36 | C/C=C\C(C)(C)C | 80.4 °C | -135 °C |  |  |  |  |  | 
37 | Nc1ccccc1Br | 229 °C | 32 °C |  |  |  |  |  | 
38 | NCCNCCN | 207 °C | -39 °C |  |  |  |  | not readily biodegradable | 
39 | CC(C)OC(=O)C(C(=O)OC(C)C)=C1SCCS1 |  | 54 °C |  |  |  |  |  | 
40 | Cc1ccc(Cl)c(Nc2ccccc2C(=O)O)c1Cl |  | 257 °C |  |  |  |  |  | 
41 | CC(C)c1cccc(C(C)C)c1O | 256 °C | 18 °C |  |  |  |  | not readily biodegradable | 
42 | CCCCC(CC)CN (stereo not given) | 169 °C | -76 °C | 0.146 |  |  |  |  | 

Row | SMILES | boiling point | melting point | log10 vapour pressure (mmHg) | log10 Henry constant (atm·m³/mol) | log10 biodegradation half-life (days) | log10 Koc (L/kg) | ready biodegradability | log10 Koa
43 | CC(C)(Oc1ccc(Cl)cc1)C(=O)OCCOC(=O)c1cccnc1 |  | 100 °C |  |  |  |  |  | 
44 | CCN(CCO)c1ccc(N=Nc2ccc([N+](=O)[O-])cc2)cc1 |  | 161 °C | -13.4 |  |  |  |  | 
45 | O=C(O)c1cc(F)c(F)cc1F |  | 100 °C |  |  |  |  |  | 
46 | Clc1ccc(Cl)c(-c2c(Cl)ccc(Cl)c2Cl)c1 |  |  |  | -3.92 |  | 5.55 |  | 8.79
47 | CCC#CC(C)C | 95.2 °C | -117 °C |  |  |  |  |  | 
48 | CCC(Cl)C(C)Cl (stereo not given) | 139 °C | -77.3 °C |  |  |  |  |  | 
49 | CCCCCCNC(=O)COC(=O)c1ccccc1 |  | 130 °C |  |  |  |  |  | 
50 | CCNP(=S)(OC)O/C(C)=C/C(=O)OC(C)C (stereo not given) |  |  | -4.84 |  |  |  |  | 
51 | CCOCCc1ccc(OCCN=c2[nH]cnc(CC)c2Cl)c(C)c1C |  | 70 °C |  |  |  |  |  | 
52 | CC(C)CCO | 131 °C |  | 0.375 | -4.85 |  |  | readily biodegradable | 4.52
53 | CC(C)CCCl | 98.9 °C | -104 °C |  |  |  |  |  | 
54 | CCCC(C)CC (stereo not given) | 91 °C | -119 °C | 1.79 |  | 0.954 |  |  | 
55 | CCCCOCCOC(=O)COc1cc(Cl)c(Cl)cc1Cl |  |  | -5.82 |  |  |  |  | 
56 | CCOC(=O)C(C(C)=O)C(C)=O | 210 °C |  |  |  |  |  |  | 
57 | CC1=C(C)C(=O)c2ccccc2C1=O |  | 127 °C |  |  |  |  |  | 
58 | COC(=O)c1cc(C)ccc1O | 244 °C | -1 °C |  |  |  |  |  | 
59 | Clc1ccccc1C(Cl)(Cl)Cl | 264 °C | 29.4 °C | -1.3 |  |  |  |  | 
60 | CC[C@H]1CC[C@H]2[C@@H]3CC[C@@H]4CCCC[C@]4(C)[C@H]3CC[C@]12C |  | 84 °C |  |  |  |  |  | 
61 | CCCCC(CC)COC(=O)CC(C(=O)OCC(CC)CCCC)S(=O)(=O)[O-].[Na+] (stereo not given) |  | 176 °C |  |  |  |  |  | 
62 | Clc1ccc2c(c1)Oc1c(Cl)c(Cl)c(Cl)c(Cl)c1O2 |  | 195 °C | -9.18 |  |  |  |  | 10.7
63 | c1ccc2cc3c(cc2c1)-c1cccc2cccc-3c12 | 480 °C | 217 °C | -9.02 | -6.23 | 2.55 | 4.34 | not readily biodegradable | 
